Experimental data as given in US20100240709A1, “Sulfoximine Derivatives as p38 MAP Kinase Inhibitors” (priority 2005, published 2010).

Each compound was assayed against p38 MAP kinase (Homo sapiens, UniProt Q16539) (assay: p-38 MAPK Enzyme assay (in vitro ELISA, ATF-2 substrate)). Conditions: ELISA detection of phosphorylated ATF-2.
Sequence of p38 MAP kinase (Q16539 whole entry): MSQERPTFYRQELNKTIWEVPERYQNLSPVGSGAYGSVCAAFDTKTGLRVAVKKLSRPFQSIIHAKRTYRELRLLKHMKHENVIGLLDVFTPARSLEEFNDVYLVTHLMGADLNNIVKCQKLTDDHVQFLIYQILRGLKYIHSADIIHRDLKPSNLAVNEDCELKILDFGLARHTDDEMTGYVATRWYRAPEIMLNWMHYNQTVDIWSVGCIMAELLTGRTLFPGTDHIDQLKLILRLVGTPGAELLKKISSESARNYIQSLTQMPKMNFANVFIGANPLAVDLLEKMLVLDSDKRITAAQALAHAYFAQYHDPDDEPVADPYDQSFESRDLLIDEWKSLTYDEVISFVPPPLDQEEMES
Assay type: biochemical
Excerpt: The compounds were screened using an in vitro ELISA assay for p38 MAP kinase activity. Activated p38 MAP kinase during the course of its biological function phosphorylates its substrates. The assay was based on the detection of a phosphorylated p38 MAP kinase substrate using ATF-2 as the biological substrate. More the activity of the p38 MAP kinase inhibitor in the reaction mixture less will be the amount of active p38 MAP kinase available to phosphorylate ATF-2. So, lower OD value will indicate the higher inhibition of p38 MAP kinase by the specific p38 MAP kinase inhibitor. The quantitation of phosphorylated ATF-2 at varying concentrations of p38 MAP kinase inhibitor was used to determine the IC50 by fitting the results to a logistic dose-response program (Graphpad Prism, CA). IC50 was defined as the concentration of compound required to achieve 50% inhibition of p38 MAP kinase activity.
`CCc1nc(-c2cccc(F)c2)c(-c2ccnc(N=S(C)(=O)c3ccccc3)c2)s1` (stereo not drawn) [Example 50, S-Methyl-S-phenyl-N-[4-(2-ethyl-4-(3-fluoro-phenyl)-1,3-thiazol-5-yl)-pyridine-2-yl]-sulfoximine] showed an IC50 of 4.4 µM. Work on `CCc1nc(-c2ccc(F)c(F)c2)c(-c2ccnc(N=S(C)(=O)c3ccc(F)cc3)c2)s1` (stereo not drawn) [Example 59, S-Methyl-S-(4-fluorophenyl)-N-{-4-[2-ethyl-4-(3,4-difluorophenyl)-thiazol-5-yl]pyridin-2-yl}-sulfoximine] yielded an IC50 of 6.6 µM. `CCc1nc(-c2ccc(F)cc2)c(-c2ccnc(N=S(=O)(CC)c3ccccc3)c2)s1` (stereo not drawn) [Example 38, S-Ethyl-S-phenyl-N-{4-[2-ethyl-4-(4-fluoro-phenyl)-thiazol-5-yl]-pyridin-2-yl}-sulfoximine] was tested, and the IC50 was 0.17 µM. `CCc1nc(-c2ccccc2)c(-c2ccnc(N=S(=O)(c3ccccc3)C3CCCC3)c2)s1` (single isomer, unassigned; (-)) [Example 29] gave an IC50 of 2.6 µM. For `CCc1nc(-c2ccccc2)c(-c2ccnc(N=S(=O)(c3ccccc3)C3CCCC3)c2)s1` (stereo not drawn) [Example 28, S-Cyclopentyl-S-phenyl-N-[4-{2-ethyl-4-phenyl-thiazol-5-yl}-pyridine]-sulfoximine], the IC50 was 0.46 µM. Compound `CCc1nc(-c2ccc(F)cc2)c(-c2ccnc(N=S(=O)(c3ccccc3)C(C)C)c2)s1` (stereo not drawn) [Example 35, S-Isopropyl-S-phenyl-N-{-4-[2-ethyl-4-(4-fluoro-phenyl)-thiazol-5-yl]-pyridin-2-yl}-sulfoximine] has an IC50 of 14.6 µM. For `CCc1nc(-c2cccc(C)c2)c(-c2ccnc(N=S(=O)(c3ccccc3)C(C)C)c2)s1` (stereo not drawn) [Example 13, S-Isopropyl-S-phenyl-N-[4-(2-ethyl-4-(3-methylphenyl)-1,3-thiazol-5-yl)-pyridine-2-yl]-sulfoximine], the IC50 was 1.3 µM. With `CCc1nc(-c2cccc(C)c2)c(-c2ccnc(N=S(C)(=O)c3ccc(F)c(Cl)c3)c2)s1` (stereo not drawn) [Example 17, S-Methyl-S-(3-chloro-4-fluoro-phenyl)-N-[4-(2-ethyl-4-(3-methylphenyl)-1,3-thiazol-5-yl)-pyridine-2-yl]-sulfoximine] the IC50 was 10 µM. Compound `CCc1nc(-c2ccc(F)cc2)c(-c2ccnc(N=S(C)(=O)c3ccc(F)cc3)c2)s1` (stereo not drawn) [Example 41, S-Methyl-S-4-fluoro-phenyl-N-[4-(2-ethyl-4-(4-fluoro-phenyl)-1,3-thiazol-5-yl)-pyridine-2-yl]-sulfoximine] has an IC50 of 1.4 µM. `CCc1nc(-c2cccc(C)c2)c(-c2ccnc(N=S3(=O)CCCCC3)c2)s1` [Example 18, 1-Imino-N-[4-(2-ethyl-4-(3-methylphenyl)-1,3-thiazol-5-yl)-pyridine-2-yl]-tetrahydro-2H-thiopyran-1-oxide] was tested, and the IC50 was 15 µM. For `CCc1nc(-c2cccc(C)c2)c(-c2ccnc(N=S3(=O)CCCC3)c2)s1` [Example 19, 1-Imino-N-[4-(2-ethyl-4-(3-methylphenyl)-1,3-thiazol-5-yl)-pyridine-2-yl]-tetrahydro-thiophene-1-oxide], the IC50 was 6.8 µM. Compound `CS(=O)(=Nc1cc(-c2scnc2-c2cccc(F)c2)ccn1)c1ccccc1` (stereo not drawn) [Example 71] has an IC50 of 25.5 µM. `CCc1nc(-c2cccc(C)c2)c(-c2ccnc(N=S(=O)(C3CCCCC3)C3CCCCC3)c2)s1` [Example 2, S,S-dicyclohexyl-N-[4-(2-ethyl-4-m-tolyl-thiazol-5-yl)-pyridine-2-yl]sulfoximine] showed an IC50 of 1.2 µM. Compound `CCc1nc(-c2cccc3ccccc23)c(-c2ccnc(N=S(C)(=O)c3ccccc3)c2)s1` (stereo not drawn) [Example 53, S-Methyl-S-phenyl-N-{4-[2-ethyl-4-napthalene-1-yl-thiazol-5-yl]-pyridin-2-yl}-sulfoximine] has an IC50 of 1.9 µM. Compound `CCc1nc(-c2ccc(C)cc2)c(-c2ccnc(N=S(C)(=O)c3ccccc3)c2)s1` (stereo not drawn) [Example 64, S-Methyl-S-phenyl-N-{4-[2-ethyl-4-p-tolyl-thiazol-5-yl]-pyridin-2-yl}-sulfoximine] has an IC50 of 9.4 µM. With `CCc1nc(-c2cccc(C)c2)c(-c2ccnc(N=S(=O)(CC)c3ccccc3)c2)s1` (stereo not drawn) [Example 14, S-Ethyl-S-Phenyl-N-[4-(2-ethyl-4-(3-methylphenyl)-1,3-thiazol-5-yl)-pyridine-2-yl]-sulfoximine] the IC50 was 6.2 µM. With `CCc1nc(-c2ccccc2)c(-c2ccnc(N=S(C)(=O)c3ccccc3)c2)s1` (stereo not drawn) [Example 31] the IC50 was 3.2 µM. With `CCc1nc(-c2ccccc2)c(-c2ccnc(N=S(C)(=O)c3ccccc3)c2)s1` (single isomer, unassigned; (-)) [Example 20] the IC50 was 0.8 µM. With `CCc1nc(-c2cccc(C)c2)c(-c2ccnc(N=S(C)(=O)c3ccccc3)c2)s1` (single isomer, unassigned; (-)) [Example 6, (−)-S-methyl-S-phenyl-N-[4-(2-ethyl-4-(3-methylphenyl)-1,3-thiazol-5-yl)-pyridine-2-yl]-sulfoximine] the IC50 was 0.15 µM. In the case of `CCc1nc(-c2ccc(F)cc2)c(-c2ccnc(N=S(C)(=O)c3ccccc3)c2)s1` (single isomer, unassigned; (-)) [Example 33, (−)-S-Methyl-S-phenyl-N-{-4-[2-ethyl-4-(4-fluoro-phenyl)-thiazol-5-yl]-pyridin-2-yl}-sulfoximine], the IC50 is reported as 3.9 µM. In the case of `CCc1nc(-c2ccc(F)c(F)c2)c(-c2ccnc(N=S(C)(=O)c3ccccc3)c2)s1` (stereo not drawn) [Example 58, S-Methyl-S-phenyl-N-{4-[2-ethyl-4-(3,4-difluorophenyl)-thiazol-5-yl]pyridin-2-yl}-sulfoximine], the IC50 is reported as 1 µM. `CCc1nc(-c2ccccc2)c(-c2ccnc(N=S(C)(=O)c3ccc(OC)cc3)c2)s1` (stereo not drawn) [Example 23] showed an IC50 of 6.6 µM. Compound `CCc1nc(-c2cccc(C)c2)c(-c2ccnc(N=S(C)(=O)c3cccc(F)c3)c2)s1` (stereo not drawn) [Example 9, S-(3-Fluorophenyl)-S-methyl-N-[4-(2-ethyl-4-m-tolyl-thiazol-5-yl)-pyridin-2-yl]-sulfoximine] has an IC50 of 5.42 µM. `CC(C)S(=O)(=Nc1cc(-c2scnc2-c2cccc(F)c2)ccn1)c1ccccc1` (stereo not drawn) [Example 72] gave an IC50 of 3.9 µM. For `Cc1cccc(-c2nc(-c3ccc([S+](C)[O-])cc3)sc2-c2ccnc(N=S(C)(=O)c3ccccc3)c2)c1` (stereo not drawn) [Example 57, S-Methyl-S-phenyl-N-{-4-[2-(4-methylsulfinyl-phenyl)-4-m-tolyl-thiazol-5-yl]-pyridin-2-yl}-sulfoximine], the IC50 was 6.5 µM. With `CCc1nc(-c2ccccc2)c(-c2ccnc(N=S(C)(=O)c3ccc(F)cc3)c2)s1` (stereo not drawn) [Example 27] the IC50 was 3.1 µM. `CCc1nc(-c2cccc(C)c2)c(-c2ccnc(N=S(=O)(CC(C)C)c3ccccc3)c2)s1` (stereo not drawn) [Example 8, S-Isobutyl-S-phenyl-N-[4-(2-ethyl-4-m-tolyl-thiazol-5-yl)-pyridin-2-yl]-sulfoximine] showed an IC50 of 55.4 µM. In the case of `CCc1nc(-c2cccc(C)c2)c(-c2ccnc(N=S(=O)(c3ccccc3)C3CCCC3)c2)s1` (stereo not drawn) [Example 1, S-Cyclopentyl-S-phenyl-N-[4-(2-ethyl-4-(3-methylphenyl)-1,3-thiazol-5-yl)-pyridine-2-yl]-sulfoximine], the IC50 is reported as 0.78 µM. `CCc1nc(-c2cccc(C)c2)c(-c2ccnc(N=S(C)(=O)c3cccc(C)c3)c2)s1` (stereo not drawn) [Example 10, S-(3-Methylphenyl)-S-methyl-N-[4-(2-ethyl-4-m-tolyl-thiazol-5-yl)-pyridin-2-yl]-sulfoximine] gave an IC50 of 11.1 µM. With `CCc1nc(-c2ccccc2)c(-c2ccnc(N=S(C)(=O)c3ccccc3)c2)s1` (single isomer, unassigned; (+)) [Example 21] the IC50 was 2.7 µM. `CCc1nc(-c2cccc(C)c2)c(-c2ccnc(N=S(C)(=O)c3ccccc3)c2)s1` (stereo not drawn) [Example 4, S-Methyl-S-phenyl-N-[4-(2-ethyl-4-(3-methylphenyl)-1,3-thiazol-5-yl)-pyridine-2-yl]-sulfoximine] was tested, and the IC50 was 1.12 µM. With `CCc1nc(-c2ccc(F)cc2)c(-c2ccnc(N=S(=O)(c3ccccc3)C3CCCC3)c2)s1` (stereo not drawn) [Example 42, S-Cyclopentyl-S-Phenyl-N-[4-(2-ethyl-4-(4-fluorophenyl)-1,3-thiazol-5-yl)-pyridine-2-yl]-sulfoximine] the IC50 was 7.1 µM. In the case of `CC(C)S(=O)(=Nc1cc(-c2scnc2-c2ccc(F)cc2)ccn1)c1ccccc1` (stereo not drawn) [Example 74], the IC50 is reported as 7.5 µM. Work on `O=S(=Nc1cc(-c2scnc2-c2ccc(F)cc2)ccn1)(c1ccccc1)C1CCCC1` (stereo not drawn) [Example 75] yielded an IC50 of 12.6 µM. `CCc1nc(-c2ccc(F)cc2)c(-c2ccnc(N=S(C)(=O)c3ccc(OC)cc3)c2)s1` (stereo not drawn) [Example 34, S-(4-Methoxy-phenyl)-S-methyl-N-{-4-[2-ethyl-4-(4-fluoro-phenyl)-thiazol-5-yl]-pyridin-2-yl}-sulfoximine] was tested, and the IC50 was 6.4 µM. `CCc1nc(-c2cccc(C(F)(F)F)c2)c(-c2ccnc(N=S(C)(=O)c3ccccc3)c2)s1` (stereo not drawn) [Example 54, S-Methyl-S-phenyl-N-{4-[2-ethyl-4-(3-trifluoromethylphenyl)-thiazol-5-yl]-pyridin-2-yl}sulfoximine] showed an IC50 of 4.8 µM. `CCc1nc(-c2cccc(C)c2)c(-c2ccnc(N=S(C)(=O)c3ccc(OC)cc3)c2)s1` (stereo not drawn) [Example 3, S-Methyl-S-4-methoxyphenyl-N-[4-(2-ethyl-4-m-tolyl-thiazol-5-yl)-pyridine-2-yl]-sulfoximine] was tested, and the IC50 was 1.1 µM. Work on `CCc1nc(-c2ccc(F)cc2)c(-c2ccnc(N=S(=O)(c3ccccc3)c3ccccc3)c2)s1` [Example 45, S,S-Diphenyl-N-[4-(2-ethyl-4-(4-fluorophenyl)-thiazol-5-yl)-pyridin-2-yl]-sulfoximine] yielded an IC50 of 1.35 µM. With `CCc1nc(-c2cccc(C)c2)c(-c2ccnc(N=S(=O)(c3ccccc3)c3ccccc3)c2)s1` [Example 11, S,S-Diphenyl-N-[4-(2-ethyl-4-m-tolyl-thiazol-5-yl)-pyridin-2-yl]-sulfoximine] the IC50 was 2 µM.
